Biological target: T1, S1P5 (Homo sapiens, UniProt Q9H228)
T1 construct: expressed in transfected cells; host or cells: CHO cells (membranes)
Test: [35S]-GTPγS functional binding assay on CHO-S1P5 membranes
Format: biochemical
Details: membranes of CHO cells expressing recombinant S1P5 receptors; measure of S1P5 agonism
Procedure: CHO cells expressing recombinant S1P5 receptors were cultured in 500 cm^2 culture trays and, once confluent, rinsed and detached with cell-lifting buffer (10 mM HEPES, 154 mM NaCl, 6.85 mM EDTA, pH 7.4). Cells were then pelleted by centrifugation, resuspended, and homogenized in membrane preparation buffer (10 mM HEPES and 10 mM EDTA, pH 7.4) using a Polytron PT 1200E homogenizer (Kinematica, Luzern, Switzerland). Cellular proteins were pelleted by centrifugation at 48,000×g at 4° C. for 30 minutes. The resulting supernatant was discarded, and the pellet was re-suspended again in membrane preparation buffer, homogenized for a second time, and then centrifuged again as described above. The final cellular protein pellet was suspended in ice cold resuspension buffer (10 mM HEPES and 0.1 mM EDTA, pH 7.4), divided into aliquots, and stored at −80° C. until use.
Functional binding assays for [^35S]-GTPγS were performed in 96-well non-binding surface plates with a final volume of 200 μL. The test compounds were serially diluted in DMSO and added to assay plates using a Tecan D300E digital printer with a total volume of 0.4 μL. The control sphingosine-1-phosphate (S1P) was prepared separately by preparing a 400 μM stock solution from a 100 nmol pellet of SIP in 10 mM Na2CO3 with 2% s-cyclodextrin. The serial dilution of S1P was done using complete assay buffer (20 mM HEPES, 10 mM MgCl2, 100 mM NaCl, 1 mM EDTA, 0.1% fatty acid free bovine serum albumin (BSA), and 30 μg/mL saponin, pH 7.4) and transferred to wells already containing 0.4 μL DMSO. All the wells were then loaded to a total volume of 40 μL of complete assay buffer, except the non-specific binding (NSB) wells. For NSB wells, 40 μL/well of 50 μM GTPγS (Sigma Aldrich, cat #G8634, St. Louis, MO) was added to wells containing 0.4 μL of DMSO. The assay was started by the addition of 120 μL/well of CHO-S1P receptor membrane solution containing 40 μg/mL of membrane protein, 16.67 μM guanosine diphosphate (GDP; Sigma Aldrich, cat #G7127, St. Louis, MO), and 2.5 mg/mL of WGA PVT SPA beads in complete buffer. Assay plates were then sealed and incubated at room temperature with gentle agitation for 30 minutes. Next, 40 μL/well of 1 nM of [^35S]-GTPγS (PerkinElmer, cat #NEG030X250UC, Waltham, MA) in basic assay buffer (20 mM HEPES, 10 mM MgCl2, 100 mM NaCl, and 1 mM EDTA, pH 7.4) was added to the assay plates to yield a final concentration of […] and the plates were further incubated for 40 minutes at room temperature with gentle agitation. The assay was terminated by centrifugation of the plates at 1000 rpm for 3 minutes using an Eppendorf 5810R centrifuge (Eppendorf, Hamburg, Germany) and G protein bound radioactivity was quantitated using a MicroBeta2 microplate scintillation counter (PerkinElmer, Waltham, MA). As G protein bound radioactivity directly correlates to receptor activation and coupling to the G protein, this assay is a measure of S1P5 agonism.

T1 sequence (Q9H228 whole entry, species assumed): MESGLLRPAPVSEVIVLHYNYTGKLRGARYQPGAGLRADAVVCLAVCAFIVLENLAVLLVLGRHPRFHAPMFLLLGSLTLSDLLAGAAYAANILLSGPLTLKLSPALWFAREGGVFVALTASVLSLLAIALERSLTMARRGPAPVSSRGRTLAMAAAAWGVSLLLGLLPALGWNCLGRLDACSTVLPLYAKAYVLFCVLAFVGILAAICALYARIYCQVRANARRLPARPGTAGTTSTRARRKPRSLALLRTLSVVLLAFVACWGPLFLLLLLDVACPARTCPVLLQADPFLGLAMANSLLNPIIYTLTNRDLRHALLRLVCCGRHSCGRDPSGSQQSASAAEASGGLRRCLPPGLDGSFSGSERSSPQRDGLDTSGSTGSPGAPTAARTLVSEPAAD

EC50 [nM]	Compound
≤ 10	O=C(O)[C@@H]1CCN(C2CCc3cc(-c4ccc(C5CC5)c(F)c4)ccc32)C1 (single isomer, unassigned) [Compound 36b]
1000 to 10000	O=C(O)[C@H]1CCCCN1C1CCc2cc(C#Cc3cccc(F)c3)ccc21 (single isomer, unassigned) [Compound 9a]
10 to 100	O=C(O)[C@H]1CCN(C2CCc3cc(-c4ccc(C5CC5)c(Cl)c4)ccc32)C1 (single isomer, unassigned) [Compound 35a]
100 to 1000	O=C(O)[C@@H]1CCCCN1C1CCc2cc(C#Cc3cccc(F)c3)ccc21 (single isomer, unassigned) [Compound 8a]
10 to 100	O=C(Cc1c(Cl)cccc1Cl)c1ccc2c(c1)CCC2N1CCC(C(=O)O)CC1 (single isomer, unassigned) [Compound 23, 1-(5-(2-(2,6-dichlorophenyl)acetyl)-2,3-dihydro-1H-inden-1-yl)piperidine-4-carboxylic acid]
10 to 100	O=C(O)[C@H]1CCN(C2CCc3cc(-c4ccc(C5CC5)c(Cl)c4)ccc32)C1 (single isomer, unassigned) [Compound 35b]
10 to 100	O=C(O)C1CCN(C2CCc3cc(CCc4ccccc4Cl)ccc32)CC1 (single isomer, unassigned) [Compound 25a, 1-(5-(2-chlorophenethyl)-2,3-dihydro-1H-inden-1-yl)piperidine-4-carboxylic acid]
≤ 10	O=C(O)C1CN(C2CCc3cc(C#Cc4cc(F)ccc4F)ccc32)C1 (single isomer, unassigned) [Compound 20, 1-(5-((2,5-difluorophenyl)ethynyl)-2,3-dihydro-1H-inden-1-yl)azetidine-3-carboxylic acid]
10 to 100	O=C(O)C1CCCN(C2CCc3cc(-c4ccc(C5CC5)c(Cl)c4)ccc32)C1 (centres unmarked) [Compound 38, 1-(5-(3-chloro-4-cyclopropylphenyl)-2,3-dihydro-1H-inden-1-yl)piperidine-3-carboxylic acid]
100 to 1000	O=C(O)C1C2CCC1CN(C1CCc3cc(C#Cc4cccc(F)c4)ccc31)C2 [Compound 10, (1R,5S,8s)-3-(5-((3-fluorophenyl)ethynyl)-2,3-dihydro-1H-inden-1-yl)-3-azabicyclo[3.2.1]-octane-8-carboxylic acid]
≤ 10	O=C(O)C1CCN(C2CCc3cc(CCc4c(Cl)cccc4Cl)ccc32)CC1 (single isomer, unassigned) [Compound 22a, 1-(5-(2,6-dichlorophenethyl)-2,3-dihydro-1H-inden-1-yl)piperidine-4-carboxylic acid]
≤ 10	O=C(O)C1CN(C2CCc3cc(-c4ccc(C5CC5)c(F)c4)ccc32)C1 (single isomer, unassigned) [Compound 31b, 1-(5-(4-cyclopropyl-3-fluorophenyl)-2,3-dihydro-1H-inden-1-yl)azetidine-3-carboxylic acid]
10 to 100	O=C(O)C1CCN(C2CCc3cc(C#Cc4ccccc4F)ccc32)CC12CC2 (centres unmarked) [Compound 11, 5-(5-((2-fluorophenyl)ethynyl)-2,3-dihydro-1H-inden-1-yl)-5-azaspiro[2.5]octane-8-carboxylic acid]
100 to 1000	O=C(O)[C@@H]1CCCN(C2CCc3cc(C#Cc4cccc(F)c4)ccc32)C1 (single isomer, unassigned) [Compound 7b]
100 to 1000	O=C(O)C1CCN(C2CCc3cc(C#Cc4cccc(F)c4)ccc32)CC1 (single isomer, unassigned) [Compound 4a, 1-(5-((3-fluorophenyl)ethynyl)-2,3-dihydro-1H-inden-1-yl)piperidine-4-carboxylic acid]
≤ 10	O=C(O)[C@@H]1CCN(C2CCc3cc(-c4ccc(C5CC5)c(Cl)c4)ccc32)C1 (single isomer, unassigned) [Compound 34a]

EC50 [nM]	Compound
10 to 100	O=C(O)C1CCN(C2CCc3cc(-c4ccc5c(c4)CCC5)ccc32)CC1 (single isomer, unassigned) [Compound 44, 1-(2,2′,3,3′-tetrahydro-1H,1′H-[5,5′-biinden]-1-yl)piperidine-4-carboxylic acid]
100 to 1000	O=C(O)C1CCN(C2CCc3cc(CCc4cccc(Cl)c4)ccc32)CC1 (single isomer, unassigned) [Compound 27b, 1-(5-(3-chlorophenethyl)-2,3-dihydro-1H-inden-1-yl)piperidine-4-carboxylic acid]
100 to 1000	O=C(O)C1CCN(C2CCc3cc(CCc4c(F)cccc4F)ccc32)CC1 (single isomer, unassigned) [Compound 28a, 1-(5-(2,6-difluorophenethyl)-2,3-dihydro-1H-inden-1-yl)piperidine-4-carboxylic acid]
≤ 10	O=C(O)C1CN(C2CCc3cc(C#Cc4cccc(F)c4)ccc32)C1 (single isomer, unassigned) [Compound 19, 1-(5-((3-fluorophenyl)ethynyl)-2,3-dihydro-1H-inden-1-yl)azetidine-3-carboxylic acid]
100 to 1000	O=C(O)[C@H]1CCN(C2CCc3cc(-c4ccc(C5CC5)c(F)c4)ccc32)C1 (single isomer, unassigned) [Compound 37a]
≤ 10	O=C(O)C1CN(C2CCc3cc(-c4ccc(C5CC5)c(F)c4)ccc32)C1 (single isomer, unassigned) [Compound 31a, 1-(5-(4-cyclopropyl-3-fluorophenyl)-2,3-dihydro-1H-inden-1-yl)azetidine-3-carboxylic acid]
10 to 100	O=C(O)[C@H]1CCN(C2CCc3cc(C#Cc4cccc(F)c4)ccc32)C1 (single isomer, unassigned) [Compound 13a]
≤ 10	O=C(O)C1(F)CCN(C2CCc3cc(C#Cc4c(Cl)cccc4Cl)ccc32)CC1 (single isomer, unassigned) [Compound 3b, 1-(5-((2,6-dichlorophenyl)ethynyl)-2,3-dihydro-1H-inden-1-yl)-4-fluoropiperidine-4-carboxylic acid]
100 to 1000	O=C(O)C1CCN(C2CCc3cc(-c4ccc5c(c4)CCO5)ccc32)CC1 (single isomer, unassigned) [Compound 43, 1-(5-(2,3-dihydrobenzofuran-5-yl)-2,3-dihydro-1H-inden-1-yl)piperidine-4-carboxylic acid]
≤ 10	O=C(O)[C@]12C[C@H]1CN(C1CCc3cc(C#Cc4c(Cl)cccc4Cl)ccc31)C2 (stereo partly drawn) [Compound 15, (1R,5R)-3-(5-((2,6-dichlorophenyl)ethynyl)-2,3-dihydro-1H-inden-1-yl)-3-azabicyclo[3.1.0]-hexane-1-carboxylic acid]
≤ 10	O=C(O)C1CCN(C2CCc3cc(CCc4c(Cl)cccc4Cl)ccc32)CC1 (single isomer, unassigned) [Compound 22b, 1-(5-(2,6-dichlorophenethyl)-2,3-dihydro-1H-inden-1-yl)piperidine-4-carboxylic acid]
100 to 1000	O=C(O)C1CCN(C2CCc3cc(-c4cccc5c4CCC5)ccc32)CC1 (single isomer, unassigned) [Compound 45, 1-(2,2′,3,3′-tetrahydro-1H,1′H-[4,5′-biinden]-1′-yl)piperidine-4-carboxylic acid]
≤ 10	O=C(O)[C@@H]1CCN(C2CCc3cc(-c4ccc(C5CC5)c(F)c4)ccc32)C1 (single isomer, unassigned) [Compound 36a]
≤ 10	O=C(O)C1CN(C2CCc3cc(C#Cc4c(Cl)cccc4Cl)ccc32)C1 (single isomer, unassigned) [Compound 18, 1-(5-((2,6-dichlorophenyl)ethynyl)-2,3-dihydro-1H-inden-1-yl)azetidine-3-carboxylic acid]
≤ 10	CC(C)c1ccc(-c2ccc3c(c2)CCC3N2CCC(C(=O)O)CC2)cc1Cl (centres unmarked) [Compound 33, 1-(5-(3-chloro-4-isopropylphenyl)-2,3-dihydro-1H-inden-1-yl)piperidine-4-carboxylic acid]
≤ 10	O=C(O)C1=CCN(C2CCc3cc(C#Cc4c(Cl)cccc4Cl)ccc32)CC1 (centres unmarked) [Compound 2, 1-(5-((2,6-dichlorophenyl)ethynyl)-2,3-dihydro-1H-inden-1-yl)-1,2,3,6-tetrahydropyridine-4-carboxylic acid]
